For one experiment, the system named is facial skin. In words: Nine-month long-term study 2 (stem cell homeostasis module peptides). Type of experiment: in vivo, human. The note with it: nine months; peptide tested with the other modules of TFC8-D; carrier in SEQ ID NO: 3 and 4 is PEG 35 kDa; sequence difference p-value <5%.
The conditions of experiment [1]: clinical phase III (Gunter & MacHens, 2012); cited from earlier work.

No end group written: not given here.

For “(Z1)-LNPSECPKTVLGAEYGKTLDASYSTAEAENHVRL (not fully specified (N-terminus); printed as (Z1)-LNPSECPKTVLGAEYGKTLDASYSTAEAENHVRL) [SEQ ID NO: 3, Z1 carrier at N-terminus; as tested a polyethyleneglycol with a molecular weight of 35 kDa]”, in the experiment on facial skin, the “frequency of reported product performance decline (comparison)” value is given as “lower for SEQ ID NO: 3 than for SEQ ID NO: 1”. In the case of “LNPSECPKTVLGASTSTLDASYSTAEAENHVRL (peptide that stimulates the Wnt beta-catenin signaling pathway) [SEQ ID NO: 2, peptide that stimulates Wnt/β-catenin signalling]”, in the experiment with facial skin, the “frequency of reported product performance decline (comparison)” value was “more strongly associated with a decline in product performance during the study period than the sequence of SEQ ID NO: 1”. The same measure, in the same setting: then “Z1-LNPSECPKTVLGASTSTLDASYSTAEAENHVRL (not fully specified (N-terminus); printed as Z1-LNPSECPKTVLGASTSTLDASYSTAEAENHVRL) [SEQ ID NO: 4, Z1 carrier at N-terminus; as tested a polyethyleneglycol with a molecular weight of 35 kDa]”, with “lower for SEQ ID NO: 4 than for SEQ ID NO: 2”.

B1: Juvista: TGF beta 3 drug (protein, UniProt P10600 301-412, looked up)
Transforming growth factor …: ALDTNYCFRNLEENCCVRPLYIDFRQDLGWKWVHEPKGYYANFCSGPCPYLRSADTTHSTVLGLYNTLNPEASASPCCVPQDLEPLTILYYVGRTPKVEQLSNMVVKSCKCS
modifications: Transforming growth factor beta-3
notes: TGF beta 3 drug
As for B1, the clinical outcome in experiment [1] is on record as “failure of a clinical phase III study”.

Values taken from US20230135317A1, “COSMETIC FORMULATION FOR TOPICAL ADMINISTRATION COMPRISING NOVEL PEPTIDES THAT IMPROVE APPEARANCE AND REGENERATION OF SKIN” (ASC REGENITY LTD., priority 2020, published 2023).
